Data: patent US7157487B2, “Vla-4 inhibitors” (Daiichi Pharmaceutical Co., Ltd., priority 2000, dated 2007)

The compounds below were run against T1, integrins haα4 and β1 (VLA-4) expressed on CHO cells (Homo sapiens, UniProt P05556+P13612) (assay: In vitro Evaluation Test (1): binding of Eu3+-hVCAM-1 D1D7-IgG to CHO cells expressing integrins α4 and β1). Conditions: inhibition of Eu3+-hVCAM-1 D1D7-IgG binding to CHO cells expressing α4β1; Ki calculated from IC50.
T1 construct: expressed in transfected cells; host or cells: CHO cells
T1 sequence (P13612 34-1032): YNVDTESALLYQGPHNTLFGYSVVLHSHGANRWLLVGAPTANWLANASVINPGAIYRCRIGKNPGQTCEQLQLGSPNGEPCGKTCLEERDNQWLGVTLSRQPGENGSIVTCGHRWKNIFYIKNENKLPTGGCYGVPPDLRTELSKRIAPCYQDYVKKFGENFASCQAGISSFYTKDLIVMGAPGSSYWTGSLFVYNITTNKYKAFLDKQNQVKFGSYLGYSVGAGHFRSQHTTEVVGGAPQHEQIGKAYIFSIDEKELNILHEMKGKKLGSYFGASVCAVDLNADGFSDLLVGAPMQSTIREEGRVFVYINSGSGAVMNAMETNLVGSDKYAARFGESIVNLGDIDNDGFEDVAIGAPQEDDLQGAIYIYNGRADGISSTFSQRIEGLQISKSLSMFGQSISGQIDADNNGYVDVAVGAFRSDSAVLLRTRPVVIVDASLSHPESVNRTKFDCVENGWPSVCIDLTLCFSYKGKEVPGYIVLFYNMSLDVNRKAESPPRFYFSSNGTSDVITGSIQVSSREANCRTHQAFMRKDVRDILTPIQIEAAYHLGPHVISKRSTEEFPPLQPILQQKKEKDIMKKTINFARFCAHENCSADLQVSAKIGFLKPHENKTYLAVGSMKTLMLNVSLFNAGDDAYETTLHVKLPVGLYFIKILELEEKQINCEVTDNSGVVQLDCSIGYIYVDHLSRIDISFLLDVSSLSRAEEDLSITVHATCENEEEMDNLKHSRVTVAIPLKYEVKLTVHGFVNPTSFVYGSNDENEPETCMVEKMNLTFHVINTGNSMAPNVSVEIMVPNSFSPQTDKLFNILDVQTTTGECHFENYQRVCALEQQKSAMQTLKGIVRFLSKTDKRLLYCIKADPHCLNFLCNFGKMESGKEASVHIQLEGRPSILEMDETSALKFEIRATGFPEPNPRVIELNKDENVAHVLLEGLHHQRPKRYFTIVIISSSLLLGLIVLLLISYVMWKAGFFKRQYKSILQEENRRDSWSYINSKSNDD
T1 sequence (P05556 21-798): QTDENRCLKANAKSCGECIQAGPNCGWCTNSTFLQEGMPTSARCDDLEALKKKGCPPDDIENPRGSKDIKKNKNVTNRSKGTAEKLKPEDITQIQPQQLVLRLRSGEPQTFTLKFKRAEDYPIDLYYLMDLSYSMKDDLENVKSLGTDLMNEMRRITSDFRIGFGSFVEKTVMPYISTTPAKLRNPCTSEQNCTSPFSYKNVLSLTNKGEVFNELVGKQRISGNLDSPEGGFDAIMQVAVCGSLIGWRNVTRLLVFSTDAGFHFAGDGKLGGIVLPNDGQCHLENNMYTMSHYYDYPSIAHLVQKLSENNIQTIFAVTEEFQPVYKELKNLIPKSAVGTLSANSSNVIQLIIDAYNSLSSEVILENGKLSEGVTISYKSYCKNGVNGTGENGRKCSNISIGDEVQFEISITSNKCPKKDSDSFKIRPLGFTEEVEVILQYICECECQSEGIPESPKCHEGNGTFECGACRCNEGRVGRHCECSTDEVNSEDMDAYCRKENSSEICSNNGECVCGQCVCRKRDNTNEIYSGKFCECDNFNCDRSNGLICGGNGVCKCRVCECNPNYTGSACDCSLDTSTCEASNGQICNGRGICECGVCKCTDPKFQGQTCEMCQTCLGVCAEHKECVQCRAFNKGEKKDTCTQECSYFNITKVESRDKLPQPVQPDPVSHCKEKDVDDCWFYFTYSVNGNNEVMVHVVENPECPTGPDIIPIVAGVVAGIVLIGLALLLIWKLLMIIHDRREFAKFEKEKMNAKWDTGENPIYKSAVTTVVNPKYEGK
Method: CHO cells forcedly expressed by the transduction of integrins haα4 and β1 were seeded in a Coster 3599 plate (3×10^4 cells/100 μl/well) and they were cultured for 2 days. After the medium was washed with buffer A* twice, 50 μl/well of Eu^3+-hVCAM-1 D1D7-IgG diluted to […] with an assay buffer ** was added. To the resulting well was added 50 μl/well of a test compound diluted with 2% DMS0-assay buffer (in the presence or absence of 6% human serum albumin) (to a well subjected to Scatchard analysis was added a solution diluted in another manner). After stirring for 5 minutes on a plate mixer, the plate was allowed to stand at room temperature for 1 hour. Then, the plate was washed four times with the buffer A and added with 100 μl/well of an enhancement reagent (DELFIA). The plate was shaken for 5 minutes on a plate mixer, followed by measurement of fluorescence intensity by a time-resolved fluorometer (DELFIA Wallac). From the binding ratio available by the following calculation formula: ((FT−FNS)−(FI−FNS))/(FT−FNS)×100, the IC50 (concentration inhibiting 50% of binding of CHO cells with hVCAM-1 D1D7-IgG) of the test compound was determined. In the above formula, FT means the fluorescence intensity of the well free of the test compound, FNS means the fluorescence intensity of the well free of the test compound and anti-hα4 antibody (SG/73), and FI means the fluorescence intensity of the well containing the test compound. The Kd indicating the binding strength and Bmax (maximum binding) were estimated within a range of 0.06 to 20 nM in accordance with the Scatchard analysis method.
The value Ki was calculated based on:
[formula] ((L) means a ligand concentration). (* buffer A: 25 mM HEPES (pH 7.5), 150 mM NaCl, 1 mM Ca^2+, 1 MM Mg^2+, 4 mM Mn^2+; ** assay buffer: 25 mM HEPES (pH 7.5), 150 mM NaCl, 1 mM Ca^2+, 1 mM Mg^2+, 4 mM Mn^2+, 0.1% BSA, 20 μM DTPA, with/without 6% ALBUMIN, HUMAN SERUM (C/N A-1653, SIGMA)) In vitro Evaluation Test (2)
Compound `Cn1cc(C(=O)Nc2cc(F)c(CC(=O)N3CC(F)(F)C[C@H]3CO[C@H]3CC[C@H](C(=O)O)CC3)cc2Cl)c2ccccc21` (mixture of isomers) [Example 143, trans-4-(1-(5-Chloro-2-fluoro-4-(1-methyl-3-indolylcarbonylamino)phenylacetyl)-4,4-difluoro-(2S)-pyrrolidinylmethoxy)cyclohexanecarboxylic acid and cis-4-(1-(5-chloro-2-fluoro-4-(1-methyl-3-indolylcarbonylamino)phenylacetyl)-4,4-difluoro-(2S)-pyrrolidinylmethoxy)cyclohexanecarboxylic acid] has a Ki of 17 nM. `Cn1cc(-c2nc3ccc(CC(=O)N4C[C@@H](F)C[C@H]4CO[C@H]4CC[C@H](C(=O)O)CC4)c(F)c3o2)c2cc(F)ccc21` (relative stereo) [Example 101, trans-4-(1-((2-(5-Fluoro-1-methyl-3-indolyl)-7-fluoro-6-benzoxazolyl)acetyl)-(4S)-fluoro-(2S)-pyrrolidinylmethoxy)cyclohexanecarboxylic acid] showed a Ki of 8.1 nM. Work on `CO[C@H]1C[C@@H](CO[C@H]2CC[C@H](C(=O)O)CC2)N(C(=O)Cc2ccc3nc(Nc4ccccc4Cl)oc3c2F)C1` (relative stereo) [Example 114, trans-4-(1-((2-(2-chlorophenylamino)-7-fluoro-6-benzoxazolyl)acetyl)-(4S)-methoxy-(2S)-pyrrolidinylmethoxy)cyclohexanecarboxylic acid] yielded a Ki of 4.8 nM. Compound `Cc1ccccc1Nc1nc2ccc(CC(=O)N3C[C@@H](F)C[C@H]3COC3CCC(C(=O)O)CC3)cc2o1` (single isomer, unassigned) [21 (Isomer G)] has a Ki of 382 nM. `Cc1ccccc1Nc1nc2ccc(CC(=O)N3CCC[C@H]3COC3CCC(C(=O)O)CC3)cc2o1` (single isomer, unassigned) [22 (Isomer B)] gave a Ki of 3.5 nM. `Cc1ccccc1Nc1nc2ccc(CC(=O)N3C[C@@H](F)C[C@H]3COC3CCC(C(=O)O)CC3)c(F)c2o1` (single isomer, unassigned) [26 (Isomer A)] was tested, and the Ki was 2 nM. Work on `O=C(O)c1ccc(OC[C@@H]2C[C@H](F)CN2C(=O)Cc2ccc3nc(Nc4ccccc4)oc3c2)cc1` [Example 1] yielded a Ki of 30 nM. In the case of `Cc1ccccc1Nc1nc2ccc(CC(=O)N3C[C@@H](F)C[C@H]3COc3ccc(C(=O)O)cc3)cc2o1` [Example 2, 4-((4S)-Fluoro-1-(2-(2-methylphenylamino)-6-benzoxazolylacetyl)-(2S)-pyrrolidinylmethoxy)benzoic acid], the Ki is reported as 17 nM. `COc1cc(CC(=O)N2C[C@@H](F)C[C@H]2COc2ccc(C(=O)O)cc2)cc2oc(Nc3ccccc3C)nc12` [Example 3, 4-((4S)-Fluoro-1-(4-methoxy-2-(2-methylphenylamino)-6-benzoxazolylacetyl)-(2S)-pyrrolidinylmethoxy)benzoic acid] gave a Ki of 40 nM. `Cc1ccccc1Nc1nc2ccc(CC(=O)N3C[C@@H](F)C[C@H]3COc3ccc(C(=O)O)cc3)c(F)c2o1` [Example 6, 4-((2S,4S)-1-(7-Fluoro-2-(2-methylphenylamino)-6-benzoxazolylacetyl)-4-fluoro-2-pyrrolidinylmethoxy)benzoic acid] gave a Ki of 14 nM. `Cc1ccccc1Nc1nc2ccc(CC(=O)N3C[C@@H](N(C)C)C[C@H]3COc3ccc(C(=O)O)cc3)cc2o1` [Example 7, 4-((4S)-Dimethylamino-1-(2-(2-methylphenylamino)-6-benzoxazolylacetyl)-(2S)-pyrrolidinylmethoxy)benzoic acid] gave a Ki of 7.1 nM. `Cc1ccccc1Nc1nc2ccc(CC(=O)N3C[C@@H](O)C[C@H]3COc3ccc(C(=O)O)cc3)cc2o1` [Example 8, 4-((2S,4S)-4-Hydroxy-1-(2-(2-methylphenylamino)-6-benzoxazolylacetyl)-2-pyrrolidinylmethoxy)benzoic acid] was tested, and the Ki was 24 nM. `O=C(O)c1ccc(OC[C@@H]2C[C@H](F)CN2C(=O)Cc2ccc(NC(=O)c3c[nH]c4ccccc34)c(Cl)c2)cc1` [Example 15, 4-(1-(3-Chloro-4-(3-indolylcarbonylamino)phenylacetyl)-(4S)-fluoro-(2S)-pyrrolidinylmethoxy)benzoic acid] gave a Ki of 2.2 nM. Compound `Cc1ccccc1Nc1nc2ccc(CC(=O)N3C[C@@H](F)C[C@H]3COc3ccc(C(=O)O)cn3)cc2o1` [Example 18, 6-((4S)-Fluoro-1-(2-(2-methylphenylamino)-6-benzoxazolylacetyl)-(2S)-pyrrolidinylmethoxy)nicotinic acid] has a Ki of 7.8 nM. `Cc1ccccc1Nc1nc2ccc(CC(=O)N3C[C@@H](F)C[C@H]3C(=O)N3CCN(CC(=O)O)CC3)cc2o1` [Example 30, 4-((4S)-Fluoro-1-(2-(2-methylphenylamino)-6-benzoxazolylacetyl)-(2S)-pyrrolidinylcarbonyl)-1-piperazinylacetic acid] gave a Ki of 40 nM. With `Cc1ccccc1Nc1nc2ccc(CC(=O)N3C[C@@H](F)C[C@H]3C(=O)N3CCC(CC(=O)O)CC3)cc2o1` [Example 31, 1-((4S)-Fluoro-1-(2-(2-methylphenylamino)-6-benzoxazolylacetyl)-(2S)-pyrrolidinylcarbonyl)-4-piperidinylacetic acid] the Ki was 16 nM. With `Cc1ccccc1Nc1nc2ccc(CC(=O)N3C[C@@H](F)C[C@H]3CNc3ccc(C(=O)O)cc3)cc2o1` [Example 33, 4-(1-(2-(2-Methylphenylamino)-6-benzoxazolylacetyl)-(4S)-fluoro-(2S)-pyrrolidinylmethylamino)benzoic acid] the Ki was 31 nM. Compound `Cc1ccccc1Nc1nc2ccc(CC(=O)N3CC[C@@H](Oc4ccc(C(=O)O)cc4)C3)cc2o1` [Example 34, 4-(1-(2-(2-Methylphenylamino)-6-benzoxazolylacetyl)-(3R)-pyrrolidinyloxy)benzoic acid] has a Ki of 26 nM. `O=C(Nc1ccc(CC(=O)N2C[C@@H](F)C[C@H]2COC2CCC(C(=O)O)CC2)cc1Cl)c1c[nH]c2ccccc12` (stereo partly drawn) [Example 38, 4-(1-(3-Chloro-4-(3-indolylcarbonylamino)phenylacetyl)-(4S)-fluoro-(2S)-pyrrolidinylmethoxy)cyclohexanecarboxylic acid] gave a Ki of 0.43 nM. Compound `Cn1cc(-c2nc3ccc(CC(=O)N4C[C@@H](F)C[C@H]4COC4CCC(C(=O)O)CC4)cc3o2)c2ccccc21` (stereo partly drawn) [Example 40, 4-((4S)-Fluoro-1-(2-(1-methyl-3-indolyl)-6-benzoxazolylacetyl)-(2S)-pyrrolidinylmethoxy)cyclohexanecarboxylic acid] has a Ki of 1.9 nM. For `Cc1ccc(F)cc1Nc1nc2ccc(CC(=O)N3C[C@@H](F)C[C@H]3CO[C@H]3CC[C@H](C(=O)O)CC3)cc2o1` [Example 41, trans-4-(1-((2-(5-Fluoro-2-methylphenylamino)-6-benzoxazolyl)acetyl)-(4S)-fluoro-(2S)-pyrrolidinylmethoxy)cyclohexanecarboxylic acid], the Ki was 3.8 nM. `Cc1cc(F)ccc1Nc1nc2ccc(CC(=O)N3C[C@@H](F)C[C@H]3CO[C@H]3CC[C@H](C(=O)O)CC3)c(F)c2o1` [Example 45, trans-4-(1-((2-(4-Fluoro-2-methylphenylamino)-7-fluoro-6-benzoxazolyl)acetyl)-(4S)-fluoro-(2S)-pyrrolidinylmethoxy)cyclohexanecarboxylic acid] showed a Ki of 8.8 nM. Work on `Cc1c(F)cccc1Nc1nc2ccc(CC(=O)N3C[C@@H](F)C[C@H]3CO[C@H]3CC[C@H](C(=O)O)CC3)c(F)c2o1` [Example 46, trans-4-(1-((2-(3-fluoro-2-methylphenylamino)-7-fluoro-6-benzoxazolyl)acetyl)-(4S)-fluoro-(2S)-pyrrolidinylmethoxy)cyclohexanecarboxylic acid] yielded a Ki of 37 nM. Compound `Cc1ccc(F)cc1Nc1nc2c(F)cc(CC(=O)N3C[C@@H](F)C[C@H]3CO[C@H]3CC[C@H](C(=O)O)CC3)cc2o1` [Example 47, trans-4-(1-((2-(5-Fluoro-2-methylphenylamino)-4-fluoro-6-benzoxazolyl)acetyl)-(4S)-fluoro-(2S)-pyrrolidinylmethoxy)cyclohexanecarboxylic acid] has a Ki of 5.8 nM. Compound `Cc1cc(CC(=O)N2C[C@@H](F)C[C@H]2CO[C@H]2CC[C@H](C(=O)O)CC2)ccc1Nc1nc2ccccc2o1` [Example 50, trans-4-(1-(4-(2-Benzoxazolyl)amino-3-methylphenylacetyl)-(4S)-fluoro-(2S)-pyrrolidinylmethoxy)cyclohexanecarboxylic acid] has a Ki of 13 nM. `Cc1cccc2oc(Nc3ccc(CC(=O)N4C[C@@H](F)C[C@H]4CO[C@H]4CC[C@H](C(=O)O)CC4)cc3Cl)nc12` [Example 52, trans-4-(1-(3-Chloro-4-(2-(4-methylbenzoxazolyl))aminophenylacetyl)-(4S)-fluoro-(2S)-pyrrolidinylmethoxy)cyclohexanecarboxylic acid] was tested, and the Ki was 10 nM.
